Laboratory results published in article PMC3501516, “Anti-Diabetic Efficacy and Impact on Amino Acid Metabolism of GRA1, a Novel Small-Molecule Glucagon Receptor Antagonist” (PLoS ONE, 2012).
Where two headings read alike, the source gives them in different places.

Assays:
rhesus monkey = assay: Blunting of glucagon-induced blood glucose excursion in rhesus monkey; format: in vivo; details: 1 mg/kg 4 h before 15 µg/kg glucagon i.m.
Experimental: In mouse studies of glucagon-induced excursions in blood glucose, animals were dosed orally with vehicle (10 mL/kg 0.5% aqueous methylcellulose) or GRA1 one hour prior to challenge by intraperitoneal injection of 15 µg/kg glucagon (Eli Lilly, Indianapolis, IN) or vehicle, [20]. In the studies in monkey, GRA1 or vehicle was administered to chair-restrained animals via a nasogastric tube 4 h prior to intramuscular injection of 15 µg/kg glucagon. Blood glucose measurements were made using a OneTouch glucometer (Lifescan, Milpitas, CA).
(§1) Figure 3 Blunting of glucagon-induced blood glucose excursions by GRA1 treatment in the (A) hGCGR mouse and (B) rhesus monkey. In (A), mice (n = 8) were administered vehicle or 3, 10 or 30 mg/kg GRA1, then challenged 1 h later (time 0) by intraperitoneal injection of 15 µg/kg glucagon or vehicle. Pharmacokinetic analysis determined that these animals had mean plasma GRA1 concentrations of 0.4, 0.9, and 4.7 µM, respectively, at 1 h postdose. In (B), monkeys (n = 4) were administered 1 mg/kg GRA1 4 h prior to intramuscular injection of 15 µg/kg glucagon or vehicle. At 1 h postdose, the mean plasma GRA1 concentration in these animals was 0.2 µM. *p<0.05; **p<0.01; and ***p<0.001 vs. glucagon-treated control animals.

GLP-1R (GLP-1 receptor) = molecular target: T1, GLP-1R (GLP-1 receptor) (Homo sapiens, UniProt P43220); assay: Inhibition of GLP-1-stimulated cAMP production in CHO cells expressing GLP-1R; format: cell-based; details: human GLP-1R
T1 construct: expressed in transfected cells
T1 sequence (P43220 24-463): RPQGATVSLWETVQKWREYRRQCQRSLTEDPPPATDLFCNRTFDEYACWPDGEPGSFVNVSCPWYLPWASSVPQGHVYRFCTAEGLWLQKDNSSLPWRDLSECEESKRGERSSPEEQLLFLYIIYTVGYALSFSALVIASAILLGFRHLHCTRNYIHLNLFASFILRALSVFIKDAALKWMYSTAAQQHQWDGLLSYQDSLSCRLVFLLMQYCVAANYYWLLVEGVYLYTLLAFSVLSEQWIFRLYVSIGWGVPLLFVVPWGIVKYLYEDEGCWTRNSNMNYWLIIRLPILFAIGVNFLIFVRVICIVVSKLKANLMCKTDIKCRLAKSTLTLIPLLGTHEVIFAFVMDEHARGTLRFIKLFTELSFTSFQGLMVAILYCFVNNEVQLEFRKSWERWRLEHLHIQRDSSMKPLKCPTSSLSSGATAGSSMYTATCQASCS
Source text: (§2) Transfected Chinese hamster ovary (CHO) cell lines were acquired and maintained as previously described, [20]. These included separate cell lines stably expressing human GCGR (hGCGR), mouse GCGR, rhesus GGCR, glucose-dependent insulinotropic peptide receptor (GIPR), GLP-1 receptor (GLP-1R), pituitary adenylate cyclase-activating polypeptide receptor type 1 (PAC1R), and vasoactive adenylate cyclase-activating polypeptide receptor type 2 (VPAC2R). Inhibition of glucagon binding to hGCGR was assayed in cell membranes prepared from the line of CHO cells that expressed the hGCGR. Functional antagonism was assayed by measuring the production of cAMP in intact CHO cells stimulated by agonists specific for their cognate receptors (i.e., glucagon for GCGR-expressing cell lines, GIP for the GIPR-expressing line, etc.). Primary human hepatocytes were obtained from In Vitro Technologies (Baltimore, MD) and glucagon-stimulated glycogenolysis was studied in these as previously described.

rhesus GCGR = molecular target: T2, rhesus GCGR (Macaca mulatta, UniProt A0A1D5QZY8); assay: Inhibition of glucagon-stimulated cAMP production in CHO cells expressing rhesus GCGR; format: cell-based
T2 construct: expressed in transfected cells
T2 sequence (A0A1D5QZY8 27-491): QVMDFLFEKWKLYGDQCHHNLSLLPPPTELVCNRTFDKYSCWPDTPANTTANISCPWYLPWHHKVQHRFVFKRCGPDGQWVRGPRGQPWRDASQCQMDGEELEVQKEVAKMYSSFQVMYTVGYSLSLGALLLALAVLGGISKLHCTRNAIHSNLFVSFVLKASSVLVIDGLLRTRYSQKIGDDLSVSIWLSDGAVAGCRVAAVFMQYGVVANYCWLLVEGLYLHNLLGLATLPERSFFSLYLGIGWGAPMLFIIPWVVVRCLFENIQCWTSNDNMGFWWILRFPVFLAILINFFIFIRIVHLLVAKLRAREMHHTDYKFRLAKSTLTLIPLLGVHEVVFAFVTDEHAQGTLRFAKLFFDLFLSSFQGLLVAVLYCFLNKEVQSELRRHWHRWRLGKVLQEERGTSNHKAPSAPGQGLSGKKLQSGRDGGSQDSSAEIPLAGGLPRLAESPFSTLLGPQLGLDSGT
Experimental: Transfected Chinese hamster ovary (CHO) cell lines were acquired and maintained as previously described [17], [20]. These included separate cell lines stably expressing human GCGR (hGCGR), mouse GCGR, rhesus GGCR, glucose-dependent insulinotropic peptide receptor (GIPR), GLP-1 receptor (GLP-1R), pituitary adenylate cyclase-activating polypeptide receptor type 1 (PAC1R), and vasoactive adenylate cyclase-activating polypeptide receptor type 2 (VPAC2R). […] Functional antagonism was assayed by measuring the production of cAMP in intact CHO cells stimulated by agonists specific for their cognate receptors (i.e., glucagon for GCGR-expressing cell lines, GIP for the GIPR-expressing line, etc.).

[1] = molecular target: T3, VPAC2R (vasoactive adenylate cyclase-activating polypeptide receptor type 2) (Homo sapiens, UniProt P41587); assay: Inhibition of agonist-stimulated cAMP production in CHO cells expressing VPAC2R; format: cell-based; details: VPAC2-stimulated
T3 construct: expressed in transfected cells
T3 sequence (P41587 24-438): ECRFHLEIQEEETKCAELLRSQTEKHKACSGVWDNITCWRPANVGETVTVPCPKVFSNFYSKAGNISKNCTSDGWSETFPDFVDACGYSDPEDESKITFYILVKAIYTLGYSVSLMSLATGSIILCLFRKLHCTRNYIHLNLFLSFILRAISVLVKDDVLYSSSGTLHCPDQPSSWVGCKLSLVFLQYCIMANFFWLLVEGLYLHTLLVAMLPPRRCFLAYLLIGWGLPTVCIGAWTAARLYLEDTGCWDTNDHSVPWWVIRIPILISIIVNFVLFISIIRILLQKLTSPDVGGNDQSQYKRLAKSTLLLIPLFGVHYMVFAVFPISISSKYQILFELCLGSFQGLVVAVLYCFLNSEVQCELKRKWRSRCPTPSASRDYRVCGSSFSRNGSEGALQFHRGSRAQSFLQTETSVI
Source text: as §2

[2] = Pharmacokinetics / plasma GRA1 concentrations in hGCGR mice; format: in vivo; details: mouse
Experimental: Under control conditions, hGCGR mice were normoglycemic and treatment of these animals with GRA1 lowered blood glucose concentrations only moderately.
Figure 2 In vivo inhibition of hepatic ^125I-glucagon binding in the hGCGR mouse following (A) acute and (B) chronic dosing with GRA1. The data are mean (±SEM) percent reductions in liver ^125I-glucagon content measured (A) 1, 3, 5, and 8 h after a single oral dose of 3 mg/kg GRA1, and (B) after treatment for 30 days with control diet or food/drug admixtures that provided 3, 6, 10, or 30 mg/kg·day GRA1. Pharmacokinetic analysis performed during the experiment in (A) determined that mean plasma GRA1 concentrations were 0.5, 0.6, 0.5, and 0.7 µM at 1, 3, 5, and 8 h postdose, respectively. TEXT PRINTED IN THE PICTURE: (A) no label printed: Receptor occupancy (%): 64% (Time postdose (h): 1); Receptor occupancy (%): 71% (Time postdose (h): 3); Receptor occupancy (%): 65% (Time postdose (h): 5); Receptor occupancy (%): 73% (Time postdose (h): 8) | (B) no label printed: Receptor occupancy (%): 71% (Dose (mg/kg): 3); Receptor occupancy (%): 78% (Dose (mg/kg): 6); Receptor occupancy (%): 83% (Dose (mg/kg): 10); Receptor occupancy (%): 93% (Dose (mg/kg): 30)
as §1

[3] = molecular target: T4, PAC1R (pituitary adenylate cyclase-activating polypeptide receptor type 1) (Homo sapiens, UniProt P41586); assay: Inhibition of agonist-stimulated cAMP production in CHO cells expressing PAC1R; format: cell-based; details: PAC1-stimulated
T4 construct: expressed in transfected cells
T4 sequence (P41586 21-468): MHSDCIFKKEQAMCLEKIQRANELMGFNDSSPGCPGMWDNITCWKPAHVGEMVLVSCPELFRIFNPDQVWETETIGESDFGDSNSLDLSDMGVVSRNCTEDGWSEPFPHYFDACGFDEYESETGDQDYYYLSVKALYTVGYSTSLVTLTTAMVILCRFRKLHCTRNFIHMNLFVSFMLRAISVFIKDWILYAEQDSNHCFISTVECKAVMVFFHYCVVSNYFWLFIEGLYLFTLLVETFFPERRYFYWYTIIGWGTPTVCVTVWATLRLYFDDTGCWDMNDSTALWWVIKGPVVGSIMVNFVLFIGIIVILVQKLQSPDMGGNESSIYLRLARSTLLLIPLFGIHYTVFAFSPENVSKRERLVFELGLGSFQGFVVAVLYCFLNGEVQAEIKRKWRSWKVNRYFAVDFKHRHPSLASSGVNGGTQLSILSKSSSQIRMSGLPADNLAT
Source text: as §2

[4] = system: perfused liver from hGCGR mice; assay: Glucagon-stimulated glycogenolysis in perfused liver from hGCGR mouse (13C NMR); details: 50 pM glucagon
Experimental: Livers were perfused with Ringers solution containing 6.7 mM [2-^13C]pyruvate while ^13C content (indicative of accumulated [^13C]glycogen) was monitored dynamically by nuclear magnetic resonance imaging. At time = −22 min, 0.1–3.0 uM GRA1 or vehicle was added to the perfusate; 50 pM glucagon or vehicle was added at time 0. The data are means ±SEM.
Glycogen content of perfused hGCGR mouse liver was measured as previously described [30]. In brief, livers were perfused ex vivo with Ringers solution containing 6.7 mM [2-^13C]pyruvate while ^13C content (indicative of accumulated [^13C]glycogen) was monitored dynamically by nuclear magnetic resonance imaging.

[5] = hGCGR.ob/ob mice, 10 mg/kg•day food admixture, 5 weeks

Q: For `COc1ccc2cc(-c3cc(-c4cc(C(F)(F)F)ccc4F)nn3[C@@H](C)c3ccc(C(=O)NCCC(=O)O)cc3)ccc2c1` [GRA1, N-[4-((1S)-1-{3-(2-fluoro-5-trifluoromethylphenyl)-5-[6-methoxynaphth-2-yl]-1H-pyrazol-1-yl}ethyl)benzoyl]-β-alanine], which “Reduction of magnitude of glucagon-stimulated blood glucose excursion” value (rhesus monkey) is on record?
A: about 50%

Q: What about the IC50 (GLP-1R (GLP-1 receptor)) of the same molecule?
A: 7.9 µM

Q: What about the IC50 (rhesus GCGR) of the same molecule?
A: 0.015 µM

Q: And the IC50 [1]?
A: 4.2 µM

Q: And the concentration at 1 h ([2]; oral, 3 mg/kg p.o., 1 h postdose (glucagon challenge))?
A: 400 nM

Q: What about the concentration at 1 h ([2]; oral, 10 mg/kg p.o., 1 h postdose (glucagon challenge)) of the same molecule?
A: 900 nM

Q: And the concentration at 1 h ([2]; oral, 30 mg/kg p.o., 1 h postdose (glucagon challenge))?
A: 4700 nM

Q: And the concentration at 1 h ([2]; single oral 3 mg/kg, 1 h postdose (occupancy experiment))?
A: 500 nM

Q: What about the concentration at 3 h ([2]; single oral 3 mg/kg, 3 h postdose (occupancy experiment)) of the same molecule?
A: 600 nM

Q: And the concentration at 5 h ([2]; single oral 3 mg/kg, 5 h postdose (occupancy experiment))?
A: 500 nM

Q: And the concentration at 8 h ([2]; single oral 3 mg/kg, 8 h postdose (occupancy experiment))?
A: 700 nM

Q: What about the IC50 [3] of the same molecule?
A: 7.85 µM

Q: And the “Reduction of hepatic response to glucagon (13C glycogen loss)” value ([4]; 0.3 µM GRA1 pretreatment)?
A: about 50%

Q: And the “Hepatic response to glucagon (13C glycogen loss)” value ([4]; 1 µM GRA1 pretreatment)?
A: completely prevented

Q: And the “Hepatic response to glucagon (13C glycogen loss)” value ([4]; 3 µM GRA1 pretreatment)?
A: completely prevented

Q: What about the “Mean GRA1 plasma concentration” value ([5]; 4 PM) of the same molecule?
A: 0.77 ± 0.2 µM

Q: What about the “Mean GRA1 plasma concentration” value ([5]; 9AM) of the same molecule?
A: 1.7 ± 0.5 µM
